# Test results published in patent publication US12629364B2, “Methods of treating cancers overexpressing CARM1 with EZH2 inhibitors and platinum-based antineoplastic drugs” (The Wistar Institute of Anatomy and Biology, priority 2016, dated 2026).
# “Also recorded” adds a separate entry of the source.
# What was measured:
# [1] = tested on: CARM1-expressing cell lines (A1847, OVCAR10, and PEO4); assay: Colony formation assay / GSK126 response curves, CARM1-expressing ovarian cancer cell lines; format: cell-based, Human
# Description: FIG. 5 illustrates the results of a colony formation assay with a panel of normal and ovarian cancer cell lines in the presence of GSK126.
# FIG. 7 illustrates GSK 126 response curves in a panel of normal and ovarian cancer cell lines. Error bars indicate standard error (S.E.) for n=3. *, p≤0.05.
# FIG. 8 illustrates IC50 results for the panel of normal and ovarian cancer cell lines.
# (§1) FIG. 33 illustrates relative growth of the indicated HOSE, FTE, and EOC cancer cell lines with high or low CARM1 expression treated with 10 μM GSK126 or vehicle in a colony formation assay as determined by NIH Image J quantification.
# (§2) 500 to 5,000 cell were plated into a 24 well tissue culture plate and treated with the indicated compounds. Medium was changed every three days with appropriate drug doses for 12 days or until control wells became confluent. Colonies were washed twice with PBS and fixed with 10% methanol and 10% acetic acid in distilled water. Fixed colonies were stained with 0.005% crystal violet. Integrated density was measured using NIH ImageJ software.
# [2] = tested on: A1847 parental and CARM1 knockout cells; assay: Epigenetic targeting small molecule set screen (14-day colony formation); format: cell-based, Human; conditions: A1847 parental vs CARM1 knockout; 14 days; normalized to vehicle
# Protocol: FIG. 26 illustrates that CARM1-expressing cells are selectively sensitized to EZH2 inhibitors. Equal number of parental control or CARM1 knockout […] cells were plated and treated with each of the 23 individual epigenetic inhibitors for 14 days. The media with the inhibitors was refreshed every 3 days. Cell growth was quantified as integrated density using NIH Image J software. Quantification of the average integrated density graphed as a scatter plot. The X-axis indicates the relative growth of treated CARM1 high parental […] cells compared with DMSO vehicle controls. Y-axis indicates the relative growth of treated CARM1 knockout […] cells compared with DMSO vehicle controls. n=4; and error bars represents SEM. FIG. 27 illustrates a table of EZH2 inhibitors that are selective against CARM1 expression. CARM1-high parental controls and CARM1 knockout […] cells were treated with the indicated concentration of the small molecules in a 14-day colony formation assay. Integrated density for each well was calculated using NIH Image J software. The relative growth of the indicated cells was determined by normalizing to the vehicle control treated cells. n=4 and p-value was calculated using a two-tailed t-test. FIG. 28 illustrates representative images of colonies formed by the cells treated with the indicated inhibitors. GSK126 and UNC1999 representative positive hits from the screen. […] parental and CARM1 knockout cells were plated in 24-well plates and treated with 24 epigenetic compounds. Cell medium was changed every three days with appropriate drug doses for 14 days or until control wells became confluent. Colonies were washed twice with PBS and fixed with 10% methanol and 10% acetic acid in distilled water. Fixed colonies were stained with 0.005% crystal violet. Integrated density was measured using NIH ImageJ software as a surrogate for cell growth.
# [3] = target: T1, EZH2 (Homo sapiens, UniProt Q15910); assay: H3K27Me3 / EZH2 immunoblot in A1847 cells; format: cell-based; conditions: 72 hours, read-out: inhibition of the enzymatic activity of EZH2 as indicated by decrease in H3K27Me3 levels
# T1 construct: endogenous in cells; host or cells: A1847 human epithelial ovarian cancer cells
# T1 sequence (Q15910 whole entry): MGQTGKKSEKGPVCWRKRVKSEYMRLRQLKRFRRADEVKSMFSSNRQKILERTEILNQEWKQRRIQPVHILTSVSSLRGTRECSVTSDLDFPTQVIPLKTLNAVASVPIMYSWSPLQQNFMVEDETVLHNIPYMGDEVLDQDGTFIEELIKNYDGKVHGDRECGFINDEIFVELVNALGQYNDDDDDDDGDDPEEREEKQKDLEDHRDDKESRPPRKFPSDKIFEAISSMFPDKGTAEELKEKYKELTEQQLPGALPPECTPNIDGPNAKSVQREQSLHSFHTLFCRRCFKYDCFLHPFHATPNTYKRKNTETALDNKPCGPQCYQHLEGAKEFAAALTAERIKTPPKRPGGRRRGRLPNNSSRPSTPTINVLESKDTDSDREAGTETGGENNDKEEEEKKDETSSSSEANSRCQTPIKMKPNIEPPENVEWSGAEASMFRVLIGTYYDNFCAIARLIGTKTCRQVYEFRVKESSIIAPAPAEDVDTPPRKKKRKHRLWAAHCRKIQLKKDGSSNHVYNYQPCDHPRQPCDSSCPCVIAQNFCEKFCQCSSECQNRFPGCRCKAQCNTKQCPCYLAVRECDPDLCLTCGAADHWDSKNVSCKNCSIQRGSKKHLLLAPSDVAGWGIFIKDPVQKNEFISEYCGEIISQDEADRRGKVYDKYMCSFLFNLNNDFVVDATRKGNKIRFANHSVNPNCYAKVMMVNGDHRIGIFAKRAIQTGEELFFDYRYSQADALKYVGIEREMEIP
# T1 sequence (Q15022 whole entry partner): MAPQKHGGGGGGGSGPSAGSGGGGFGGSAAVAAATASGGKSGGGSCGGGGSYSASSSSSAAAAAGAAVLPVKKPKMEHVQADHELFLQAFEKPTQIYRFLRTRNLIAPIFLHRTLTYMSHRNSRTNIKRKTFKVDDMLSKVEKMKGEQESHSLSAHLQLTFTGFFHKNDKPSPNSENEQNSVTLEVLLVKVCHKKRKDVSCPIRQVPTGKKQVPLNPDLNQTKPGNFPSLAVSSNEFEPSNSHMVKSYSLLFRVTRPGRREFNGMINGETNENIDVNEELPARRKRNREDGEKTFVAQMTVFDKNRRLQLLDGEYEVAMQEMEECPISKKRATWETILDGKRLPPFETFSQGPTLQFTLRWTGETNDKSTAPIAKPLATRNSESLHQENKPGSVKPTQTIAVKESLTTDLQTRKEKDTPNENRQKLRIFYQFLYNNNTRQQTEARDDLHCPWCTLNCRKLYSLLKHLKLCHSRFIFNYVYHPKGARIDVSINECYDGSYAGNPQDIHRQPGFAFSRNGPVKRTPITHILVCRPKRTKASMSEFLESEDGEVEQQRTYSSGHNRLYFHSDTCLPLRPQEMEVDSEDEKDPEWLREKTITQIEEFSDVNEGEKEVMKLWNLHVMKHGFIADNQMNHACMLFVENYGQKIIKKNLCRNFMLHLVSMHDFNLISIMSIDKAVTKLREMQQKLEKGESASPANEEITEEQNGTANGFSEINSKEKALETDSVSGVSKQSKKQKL
# T1 sequence (O75530 whole entry partner): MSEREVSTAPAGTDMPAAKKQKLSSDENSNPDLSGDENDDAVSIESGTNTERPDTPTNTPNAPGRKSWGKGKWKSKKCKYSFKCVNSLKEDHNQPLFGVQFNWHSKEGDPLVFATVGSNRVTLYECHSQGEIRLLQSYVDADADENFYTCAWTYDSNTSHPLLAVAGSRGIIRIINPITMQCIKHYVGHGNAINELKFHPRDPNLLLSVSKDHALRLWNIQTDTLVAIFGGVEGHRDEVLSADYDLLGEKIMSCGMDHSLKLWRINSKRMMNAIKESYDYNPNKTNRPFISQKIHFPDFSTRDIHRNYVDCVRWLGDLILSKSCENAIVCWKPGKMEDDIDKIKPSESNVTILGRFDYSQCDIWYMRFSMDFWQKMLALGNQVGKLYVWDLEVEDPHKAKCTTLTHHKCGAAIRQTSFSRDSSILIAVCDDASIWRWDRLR
# Protocol: FIG. 32 illustrates that the EZH2 inhibitor GSK 126 decreases H3K27Me3 levels in a dose-dependent manner. A1847 cells were treated with the indicated concentrations of GSK126 for 72 hours and examined for expression of the indicated proteins by immunoblot. Expression of histone H3 and β-actin was used as a loading control.
# Small molecules used in the epigenetic screen were obtained from Structural Genomics Consortium or The Wistar Institute Molecular Screening Facility. GSK126 was obtained from Active Biochem or Xcess Biosciences. Antibodies were obtained from: mouse anti-CARM1 (Cell Signaling, Cat. No: 12495, 1:1000 for immunoblotting), goat anti-BAF155 (Santa Cruz, Cat. No: SC9746, 1:1000 for immunoblotting), rabbit anti-methylated R1064 BAF155 (Millipore, Cat. No: ABE1339, 1:1000 for immunoblotting), rabbit anti-EZH2 (Cell Signaling, Cat. No: 5246, 1:1000 for immunoblotting), rabbit anti-cleaved PARP p85 (Promega, Cat. No: G7341, 1:1000 for immunoblotting), mouse anti-Ki67 (Cell Signaling, Cat. No: 9449, 1:500 for IHC), rabbit anti-cleaved caspase 3 (Cell Signaling, Cat. No: 9661, 1:1000 for immunoblotting and 1:50 for IHC), rabbit anti-H3K27Me3 (Cell Signaling, Cat. No: 9733, 1:1000 for immunoblotting and 1:100 for IHC), mouse anti-β-actin (Sigma, Cat. No: A1978, 1:20,000 for immunoblotting), rabbit anti-RNA pol II (Santa Cruz, Cat. No: sc-899). […]
# [4] = tested on: HOSE or FTE cells; assay: Colony formation assay, normal HOSE and FTE cells; format: cell-based, Human; conditions: 10 μM
# Protocol: as §1, §2
# [5] = tested on: CARM1-expressing tumors; assay: IHC and qRT-PCR of dissected CARM1-expressing tumors; format: in vivo, NSG mice; conditions: IHC
# Protocol: FIG. 79 illustrates immunohistochemical analysis for serial sections of tumors dissected from the indicated treatment groups where the tumor sections were stained for H3K27Me3, EZH2, cleaved caspase 3, and Ki67. Scale bar=50 μm.
# FIG. 80 illustrates histological scoring (H-score) of the indicated proteins that was calculated for 3 separate fields from 5 tumors from 5 individual mice from each of the indicated groups.
# FIG. 81 illustrates the expression of the indicated EZH2/BAF155 target genes that was determined by qRT-PCR in the tumors dissected from the indicated treatment groups.
# [6] = clinical trials for hematopoietic malignancies; cited from earlier work
smiles,measurement,setting,value
"CC[C@H](C)n1cc(C)c2c(C(=O)NCc3c(C)cc(C)[nH]c3=O)cc(-c3ccc(N4CCNCC4)nc3)cc21 [GSK126, (S)-1-(sec-butyl)-N-((4,6-dimethyl-2-oxo-1,2-dihydropyridin-3-yl)methyl)-3-methyl-6-(6-(piperazin-1-yl)pyridin-3-yl)-1H-indole-4-carboxamide]",relation of CARM1 expression level and cellular response,"[1]; 10 μM, panel of EOC cell lines",correlation between CARM1 expression levels and cellular response
same,IC50 values from response curves,"[1]; CARM1-expressing cell lines (A1847, OVCAR10, PEO4) versus panel of normal and ovarian cancer cell lines, values only in FIG. 8",Significantly reduced IC50 values
same,selective growth suppression of CARM1-expressing versus CARM1 KO cells,[2],showed selectivity against CARM1-expressing cells
same,inhibition at 10 µM,[3],> 95%
same,growth of normal cells,[4],did not affect the growth of either HOSE or FTE cells
same,H3K27Me3 staining,[5],H3K27Me3 staining was decreased
same,tolerability in clinical trials,[6],used safely in clinical trials; also recorded: well-tolerated with limited toxicity
